The structures appear in SMILES notation. Active and inactive are the calls of the source.

The subject of data set [1] is Enterococcus hirae. Put plainly: Bactericidal activity against Enterococcus hirae ATCC 1052 cultured in BHI medium assessed as reduction in bacterial survival incubated for 48 hrs by microbroth dilution method. It is filed as functional. The note with it: ATCC 1052, 48 h. In general terms: In broth dilution the organism is exposed to a series of concentrations in liquid medium.

In data set [2] the test system is Staphylococcus aureus. Put plainly: Antibiofilm activity against Staphylococcus aureus ATCC 25923 assessed as biofilm biomass at <0.625 uM incubated for 24 hrs compound added prior to bacterial biofilm formation by crystal violet staining based assay. It is filed as functional, organism-based.
In data set [3] the test system is Staphylococcus aureus. Put plainly: Biofilm degradation activity against Staphylococcus aureus ATCC 6538 assessed as biofilm formation at antibacterial MIC incubated for 24 hrs compound added post-biofilm formation by total biomass crystal violet staining-based method. The format is functional.
Data set [4] relates to Staphylococcus epidermidis. Nature of the data set: Antibacterial activity against methicillin resistant Staphylococcus epidermidis ATCC 13199 cultured in MH medium assessed as reduction in bacterial growth incubated for 48 hrs by microbroth dilution method. It is filed as functional. The conditions noted are these: ATCC 13199, 48 h.
For data set [5], the system named is Pseudomonas aeruginosa. Nature of the data set: Antibiofilm activity against Pseudomonas aeruginosa ATCC 9027 assessed as biofilm formation at 0.5 times antibacterial MIC incubated for 24 hrs compound added prior to bacterial biofilm formation by total biomass crystal violet staining-based method relative to control. The format is functional.
Data set [6] has as its system Pseudomonas aeruginosa. Put plainly: Bactericidal activity against Pseudomonas aeruginosa ATCC 9027 cultured in MH medium assessed as reduction in bacterial survival incubated for 48 hrs by microbroth dilution method. It is filed as functional. The conditions noted are these: ATCC 9027, 48 h.
For data set [7], the system named is Pseudomonas aeruginosa. Put plainly: Antibiofilm activity against Pseudomonas aeruginosa ATCC 9027 assessed as biofilm formation at antibacterial MIC incubated for 24 hrs compound added prior to bacterial biofilm formation by total biomass crystal violet staining-based method relative to control. The format is functional.
Data set [8] addresses DNA gyrase (Escherichia coli, UniProt P0AES4+P0AES6). Put plainly: Inhibition of Escherichia coli DNA gyrase super-coiling activity using relaxed pNO1 DNA as substrate incubated for 30 mins by fluorescence assay. It is filed as protein-complex assay.
The subject of data set [9] is Pseudomonas aeruginosa. Put plainly: Biofilm degradation activity against Pseudomonas aeruginosa ATCC 9027 assessed as biofilm formation at 4 times antibacterial MIC incubated for 24 hrs compound added post-biofilm formation by total biomass crystal violet staining-based method. It is filed as functional.
Data set [10] concerns Staphylococcus aureus. Put plainly: Bactericidal activity against methicillin resistant Staphylococcus aureus 6347 cultured in MH medium assessed as reduction in bacterial survival incubated for 48 hrs by microbroth dilution method. The conditions noted are these: Staphylococcus aureus, 6347, 48 h. The format is functional.
Data set [11] can be described thus: Drug uptake in Escherichia coli ATCC 8739 assessed as cellular accumulation treated with 100 uM CCCP for 10 mins prior to compound challenge for 0.5 hrs by laser confocal microscopy. The format is ADME.
In data set [12] the test system is Staphylococcus aureus. Put plainly: Antibiofilm activity against Staphylococcus aureus ATCC 25923 pre-formed mature biofilm assessed as reduction in biofilm biomass at 40 uM incubated for 24 hrs compound added post biofilm formation by crystal violet staining based assay relative to control. It is filed as functional. The note with it: ATCC 25923, 24 h.
The subject of data set [13] is Escherichia coli. Nature of the data set: Antibacterial activity against Escherichia coli ATCC 8739 assessed as reduction in cell number with morphological disorders at 128 ug/ml incubated for 30 mins by laser confocal microscopy. The format is functional, organism-based.
Data set [14] relates to Escherichia coli. Nature of the data set: Induction of inner membrane permeabilization in Escherichia coli ATCC 8739 assessed as increase in release of cytoplasmic beta galactosidase using ONPG as substrate at 128 ug/ml incubated for 90 mins compound added with bacterial cells after lag time of about 10 mins by spectrophotometry. It is filed as organism-based.
Data set [15] in a line: Drug uptake in Escherichia coli ATCC 8739 assessed as membrane accumulation and affinity to cell structure at 128 ug/ml incubated for 30 mins by laser confocal microscopy. The format is ADME. The note with it: 0.5 h.
In data set [16] the test system is Staphylococcus aureus. Put plainly: Antibiofilm activity against Staphylococcus aureus ATCC 25923 pre-formed mature biofilm assessed as reduction in biofilm viability at 40 uM incubated for 24 hrs compound added post-biofilm formation by resazurin staining based assay relative to control. It is filed as functional. The conditions noted are these: ATCC 25923, 24 h. A general note: The colour change of resazurin is a common sign of viable cells or microbes.

In data set [17] the test system is Escherichia coli. Nature of the data set: Antibacterial activity against Escherichia coli ATCC 8739 assessed as bacterial cell swelling followed by non-divisional long cord formation and cell aggregates formation at 128 ug/ml incubated for 30 mins by laser confocal microscopy. It is filed as functional, organism-based.
For data set [18], the system named is Escherichia coli. Put plainly: Induction of inner membrane permeabilization in Escherichia coli ATCC 8739 assessed as increase in release of cytoplasmic beta galactosidase using ONPG as substrate at above bactericidal concentration incubated for 90 mins compound added with bacterial cells after lag time of about 10 mins by spectrophotometry. The format is organism-based.

Data set [19] has as its system Staphylococcus epidermidis. Put plainly: Resistance index, ratio of MIC for methicillin resistant Staphylococcus epidermidis ATCC 13199 measured after 2 dilution steps to MIC for Staphylococcus epidermidis ATCC 13199 measured after 48 hrs incubation by microbroth dilution method. It is filed as functional.
In data set [20] the test system is Staphylococcus epidermidis. Put plainly: Resistance index, ratio of MIC for methicillin resistant Staphylococcus epidermidis ATCC 13199 measured after 4 dilution steps to MIC for Staphylococcus epidermidis ATCC 13199 measured after 48 hrs incubation by microbroth dilution method. It is filed as functional.

On to `CCn1cc(C(=O)O)c(=O)c2cc(F)c(N3CC[N+]4(CN5C(=N4)C(C(=O)O)=Cc4ccccc45)C(C)C3)c(F)c21.[Cl-]` (configuration not stated), for which the minimum bactericidal concentration (MBC) in data set [1] worked out at 512 µg/mL; in data set [6] it was 1 µg/mL; in data set [10] it was 16 µg/mL. For the same molecule, the inhibition result in [2] was “inactive”. In addition, the Activity in data set [3] is listed as 60%; in data set [5], 73%; in data set [7], 53%; in data set [9] it was 47%. Besides, the MIC in data set [4] was 1 µg/mL. The IC50 in data set [8] was 2.44 µM.
For the molecule `O=C(O)C1=Cc2ccccc2N2C[N+]3(CCN(c4cc5c(cc4F)c(=O)c(C(=O)O)cn5C4CC4)CC3)N=C12.[Cl-]`, the Drug uptake result in data set [11] is given as “Dose-dependent effect”; in data set [15], “Not Active”. Moreover, the Activity in data set [3] is listed as 21%; in data set [5] it was 26%; in [7] it was 13%; in data set [9] it was 30%. Besides, the inhibition at 40 µM came out at 50% in [12] and 100% in data set [16]. The result in data set [13], in data set [14], in data set [17] and in data set [18] was Active. Further, the MIC in data set [4] came to 1 µg/mL. Further, the minimal bactericidal concentration (MBC) in [6] and in data set [10] was 2 µg/mL in each case. The molecule also returned an IC50 in [8] of 6.02 µM.
With `CCn1cc(C(=O)O)c(=O)c2cc(F)c(N3CC[N+]4(CC3)CN3C(=N4)C(C(=O)O)=Cc4ccccc43)nc21.[Cl-]`, the results for the minimum bactericidal concentration (MBC) in [1], in data set [6] and in data set [10] were 512 µg/mL, 1 µg/mL and 16 µg/mL, respectively. Moreover, the Ratio is 4 in data set [19] and 16 in data set [20]. In [2], the inhibition result was “inactive”. Also, the Activity in data set [3] was found to be 45%; in data set [5], 52%; in [7] it was 16%; in data set [9], 42%. For the same molecule, the MIC in data set [4] stood at 2 µg/mL.

For orientation: MBC means the smallest concentration meeting the test's criterion for killing. For orientation: inhibition means the change of the read-out against control, counted positive when it falls. By MIC is commonly meant the least concentration at which growth counts as inhibited. Broadly, the IC50 is the concentration needed to halve the response being measured. Low values mean inhibition by little substance, high ones a need for much substance.
